Data published in patent publication US20260028334A1, “N-(3-(BENZO[B]THIOPHENE-2-CARBOXAMIDO)-PHENYL)-2,3-DIHYDROBENZO[B][1,4]DIOXINE-6-CARBOXAMIDE DERIVATIVES AND RELATED COMPOUNDS AS LACTATE/ATP PRODUCTION INHIBITORS FOR THE TREATMENT OF CANCER” (WMT Aktiengesellschaft, priority 2022, published 2026).

Experiments:
[1] = patients treated with the drug; cited from earlier work
lactate production = experiment: Lactate production inhibition assay; assay type: cell-based; conditions: summary of Table 1
Source text: (§1) Recombinant Lactate Dehydrogenase A (LDHA) was used to convert lactate in tissue culture supernatants to pyruvate, with the concomitant reduction of NAD^+ to NADH. The electron acceptor 1-methoxyphenazine methosulfate (MPMS) was then reduced by the generated NADH, thereby regenerating NAD+. Reduced 1-methoxyphenazine methosulfate is used in turn to reduce Water Soluble Tetrazolium 8 (WST8) to an orange WST8 formazan product. The assay is adapted from the publication “Application of WST-8 based colorimetric NAD(P)H detection for quantitative dehydrogenase assays” described in Chamchoy et al., BMC Biochemistry (2019) 20(1):4.
(§2) Cells were plated at 4,000 per well in 96-well plate in a medium of high glucose DMEM (PAN) supplemented with 10% FBS (PAN), 2 mM glutamine-alanine (PAN), 2 mM pyruvate (Sigma) and 10 mL/L penicillin-streptomycin (PAN) and grown at 37° C. in 0.5% O2, 5% CO2 and 75% humidity. For hypoxia, cells were grown and treated in the Whitley H35 Hypoxystation (Don Whitley Scientific) at 37° C. in 0.5% O2, 5% CO2 and 75% humidity. The next day, cells were induced with test compounds (FIG. 2: compounds of examples 3/16, 3/8, 10 at 10000, 3333, 1111, 370, 123, 41, 14, 5 and 1.5 nM; FIG. 7: compounds of examples 3/16, 3/8, 10 at 41, 14, 4.6 nM and Phenformin at 100, 50, 25, 12.5, 6.25 μM; FIGS. 8C and 8D: compounds of example 3/16, 3/8, 10, 3/19, 30 and 30/2 at 10000, 3333, 1111, 370, 123, 41, 14, 5 and 1.5 nM), as well as with vehicle (DMSO) only, for 48 hours. After this time, the medium was removed from the cells to measure extracellular lactate. To detect extracellular lactate, cell supernatants are diluted 1:5 in assay buffer (0.2 M tris, pH 8.2) by adding 10 μl cell supernatant+40 μl buffer in a 96-well plate. Assay substrate mix is prepared by adding NAD+ (3.75 mM), WST-8 (0.9 mM), MPMS (10 mM) and recombinant LDHA, expressed in E. coli as an N-terminal hexahistidine tagged fusion protein, is added to a final concentration of 0.8 μg/ml in assay buffer. Thereafter, 80 μl of substrate mix is added to 20 μl of diluted cell supernatant in a 96-well flat-bottomed plate and the absorbance at 460 nm determined at one minute intervals over a 30 minute period. A standard curve of known lactate concentrations of 10, 8, 6, 4, 1, 0.5 and 0.25 mM was constructed for each assay plate.

[2] = system: ER stress markers CHAC and CHOP/DDIT3; experiment: Gene expression analysis by qPCR (FIG. 8E-8AB); assay type: cell-based; conditions: Panc02 and SKOV3 cells, 10 nM, 0.5, 1, 2 and 4 hours
Description: Cells were plated at 40,000 cells per ml in medium of high glucose DMEM (PAN) supplemented with 10% FBS (PAN), 2 mM glutamine-alanine (PAN), 2 mM pyruvate (Sigma) and 10 mL/L penicillin-streptomycin (PAN), and grown at 37° C. in 0.5% O2, 5% CO2 and 75% humidity. Next day, cells were induced with test compounds (FIG. 3: compounds of example 3/16, 3/8, 10 at 10 nM; FIG. 8E-8AB: compounds of example 3/16, 3/8, 10, 3/19, 30 and 30/2 at 10 nM) 0.5, 1, 2 and 4 hours, as well as with vehicle (DMSO) only. After this time, the cells were lysed according to protocol (Promega, SV 96 Total RNA Isolation System, #Z3505). After transferring the lysate to a 96-well-RNA binding plate, RNA was isolated and put at approx. 1 μg into cDNA synthesis using LunaScript RT SuperMix Kit (NEB, #E3010). The resulting cDNA was diluted 1:5 and used for qPCR Analysis (Taqman). Luna Universal Probe qPCR Master Mix (NEB, #M3004) is used as 2× reaction mix to which the diluted cDNA is added. The qPCR analysis was performed using QuantStudio™ 6 Flex real-time PCR systems (Thermo Fisher Scientific).
A set of primers plus probe for each gene of interest was purchased at IDT (Integrated DNA Technologies).

Panc02 and SKOV3 cells [3] = experiment: Assay for inhibition of ATP production (FIGS. 8A and 8B); assay type: cell-based; conditions: 48 hours treatment, 1.5 to 10000 nM
Description: The assay determines the amount of ATP in cells in culture.
Cells were plated at 4,000 per well in 96-well plate in a medium of high glucose DMEM (PAN) supplemented with 10% FBS (PAN), 2 mM glutamine-alanine (PAN), 2 mM pyruvate (Sigma) and 10 mL/L penicillin-streptomycin and grown at 37° C. in 0.5% O2, 5% CO2 and 75% humidity. For hypoxia, cells were grown and treated in the Whitley H35 Hypoxystation (Don Whitley Scientific) at 37° C. in 0.5% O2, 5% CO2 and 75% humidity. The next day, cells were induced with test compounds (FIG. 1: compounds of examples 3/16, 3/8, 10 at 10000, 3333, 1111, 370, 123, 41, 14, 5 and 1.5 nM; FIGS. 8A and 8B: compounds of example 3/19, 30 and 30/2 at 10000, 3333, 1111, 370, 123, 41, 14, 5 and 1.5 nM), as well as with vehicle (DMSO) only, for 48 hours. After this time, the medium was removed from the cells and intracellular ATP levels were determined using the Promega CellTiter-Glo 2.0 assay protocol (Promega, G9241). To estimate the effect of compounds on the ATP production, sample values were compared to the values of DMSO only. IC50 values were generated by plotting the luciferase counts against compound concentration.

Panc02 and SKOV3 cells [4] = experiment: Lactate production inhibition assay (FIGS. 8C and 8D); assay type: cell-based; conditions: 48 hours treatment, 1.5 to 10000 nM
Source text: as §1, §2

## [H]/N=C(/N)N/C(=N/[H])NCCc1ccccc1 [Phenformin, phenformin]
[1]
  incidence of lactic acidosis: 64 cases in 100,000 patients

## O=C(Nc1ccc(F)c(NC(=O)c2cc3ccc(OCC(O)CN4CCCC4)cc3s2)c1)c1ccc2c(c1)OCCO2 (racemic) [Example 30, N-(4-Fluoro-3-(6-(2-hydroxy-3-(pyrrolidin-1-yl)propoxy)benzo[b]thiophene-2-carboxamido)phenyl)-2,3-dihydrobenzo[b][1,4]dioxine-6-carboxamide]
Lactate production
  activity in inhibiting production of ATP and/or lactate: high activity
[2]
  ER stress markers CHAC and CHOP/DDIT3: time-dependent upregulation
Panc02 and SKOV3 cells [3]
  ATP production level: dose-dependent reduction
Panc02 and SKOV3 cells [4]
  lactate levels: dose-dependent downregulation

## CCN1CCN(Cc2ccc3cc(C(=O)Nc4cc(NC(=O)c5ccc6c(c5)OCCO6)ccc4F)sc3n2)CC1 [3/19]
Lactate production
  activity in inhibiting production of ATP and/or lactate: high activity
[2]
  ER stress markers CHAC and CHOP/DDIT3: time-dependent upregulation
Panc02 and SKOV3 cells [3]
  ATP production level: dose-dependent reduction
Panc02 and SKOV3 cells [4]
  lactate levels: dose-dependent downregulation

## CN(C)C(=N)N=C(N)N [Metformin, metformin]
[1]
  incidence of lactic acidosis: 3 cases in 100,000 patients

## O=C(Nc1ccc(F)c(NC(=O)c2cc3ccc(OC[C@H](O)CN4CCCC4)cc3s2)c1)c1ccc2c(c1)OCCO2 (single isomer, unassigned) [Example 30/2, N-(4-Fluoro-3-(6-(2-hydroxy-3-(pyrrolidin-1-yl)propoxy)benzo[b]thiophene-2-carboxamido)phenyl)-2,3-dihydrobenzo[b][1,4]dioxine-6-carboxamide]
Lactate production
  activity in inhibiting production of ATP and/or lactate: high activity
[2]
  ER stress markers CHAC and CHOP/DDIT3: time-dependent upregulation
Panc02 and SKOV3 cells [3]
  ATP production level: dose-dependent reduction
Panc02 and SKOV3 cells [4]
  lactate levels: dose-dependent downregulation
